Data set [1] concerns the target human AChE (hAChE; EC 3.1.1.7) (Homo sapiens, UniProt P22303). As to the kind of experiment: biochemical. The conditions noted are these: for IC50: mean of at least three experiments, read-out: IC50 hAChE ± STD; for SI (hBChE/hAChE): ratio IC50(hBChE)/IC50(hAChE). How it is done:
(§1) For that purpose, Ellman’s colorimetric assay was used[35].
(§2) The catalytic activity of both cholinesterases was determined by standard Ellman’s method adapted for 96-well plates. All tested inhibitors were freshly prepared in 50% DMSO/50% methanol at 10 mM concentration as stock solutions and then diluted in 0.1 M phosphate buffer, pH 7.4. […] The mixture was pre-incubated at 37 °C for 15 min and subsequently substrate (acetylthiocholine iodide or butyrylthiocholine iodide) was added to the final concentration of 1000 μM. The final volume of the reaction was 100 μL. The catalytic activity was evaluated as the amount of product (%) formed by enzyme after 10 min of incubation at 37 °C. The IC50 values from three independent experiments for each inhibitor concentration in triplicate were calculated using non-linear regression curve analysis in Prism version 7 Software (GraphPad Software Inc., San Diego, CA).

The target in data set [2] is human butyrylcholinesterase (hBChE; EC 3.1.1.8) (Homo sapiens, UniProt P06276). As to the kind of experiment: biochemical. The conditions noted are these: mean of at least three experiments; read-out: IC50 hBChE ± STD. Here is the method: as §1, §2
The target in a further data set is T1, hMAO-A (Homo sapiens, UniProt P21397).
T1 construct: purchased Sigma-Aldrich (St. Louis, MO, USA)
T1 sequence (P21397 1-527): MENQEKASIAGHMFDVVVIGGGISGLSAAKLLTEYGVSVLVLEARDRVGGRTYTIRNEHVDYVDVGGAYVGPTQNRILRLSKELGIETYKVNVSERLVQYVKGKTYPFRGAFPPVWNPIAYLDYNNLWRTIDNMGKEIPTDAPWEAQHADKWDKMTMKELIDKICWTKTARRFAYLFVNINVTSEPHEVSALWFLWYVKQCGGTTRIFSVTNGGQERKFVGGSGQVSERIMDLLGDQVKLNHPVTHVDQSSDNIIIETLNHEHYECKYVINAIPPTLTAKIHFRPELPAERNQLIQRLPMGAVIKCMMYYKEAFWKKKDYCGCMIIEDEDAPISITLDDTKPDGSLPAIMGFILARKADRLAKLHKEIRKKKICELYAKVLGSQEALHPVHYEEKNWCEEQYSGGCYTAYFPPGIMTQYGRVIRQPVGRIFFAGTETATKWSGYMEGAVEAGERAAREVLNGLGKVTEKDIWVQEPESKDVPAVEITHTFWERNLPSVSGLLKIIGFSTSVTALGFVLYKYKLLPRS
Briefly: hMAO-A inhibition, kynuramine substrate, HPLC-MS. The format is biochemical. As to conditions: residual enzyme activity; for % of MAO-A activity (1 µM): compound at 1 µM; for % of MAO-A activity (10 µM): compound at 10 µM. Here is the method: (§3) The hMAO-A and hMAO-B enzymes were purchased from Sigma-Aldrich (St. Louis, MO, USA). […] The mixture was pre-incubated at 37 °C for 5 min and subsequently substrate kynuramine was added to the final concentration of 60 µM in the case of hMAO-A and 30 µM in the case of hMAO-B. The final volume of reaction mixture was 0.1 mL. The whole reaction mixture was incubated at 37 °C for 30 min. The reaction was stopped by the addition of 200 µL acetonitrile/methanol mixture (ratio 1:1) and cooling down to 0 °C. […] Eluents: (A) 0.1% formic acid in water; (B) 0.1% formic acid in acetonitrile.

The target in the next data set is T2, hMAO-B (Homo sapiens, UniProt P27338).
T2 construct: purchased Sigma-Aldrich (St. Louis, MO, USA)
T2 sequence (P27338 1-520): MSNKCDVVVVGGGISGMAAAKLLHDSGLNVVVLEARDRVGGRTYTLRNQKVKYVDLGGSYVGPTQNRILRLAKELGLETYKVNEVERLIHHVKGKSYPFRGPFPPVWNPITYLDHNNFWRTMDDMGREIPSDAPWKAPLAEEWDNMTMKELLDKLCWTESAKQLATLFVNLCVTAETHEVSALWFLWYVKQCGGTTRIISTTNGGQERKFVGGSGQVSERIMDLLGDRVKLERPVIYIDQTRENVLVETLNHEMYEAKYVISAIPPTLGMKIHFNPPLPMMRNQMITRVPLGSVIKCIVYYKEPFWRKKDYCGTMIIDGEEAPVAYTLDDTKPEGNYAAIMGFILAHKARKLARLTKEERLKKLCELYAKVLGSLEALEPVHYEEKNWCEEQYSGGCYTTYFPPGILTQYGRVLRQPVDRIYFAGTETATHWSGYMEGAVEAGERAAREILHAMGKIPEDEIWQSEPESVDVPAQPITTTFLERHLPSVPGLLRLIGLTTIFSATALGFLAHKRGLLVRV
Briefly: biochemical. As to conditions: for % of MAO-B activity (1 µM) / % of MAO-B activity (10 µM): residual enzyme activity; for % of MAO-B activity (1 µM): compound at 1 µM; for % of MAO-B activity (10 µM): compound at 10 µM; for IC50: IC50 hMAO-B ± STD, mean of at least three experiments. Here is the method:
as §3

The next data set can be described thus: in vitro. As to conditions: PAMPA, pH 7.4.
Data set [3] concerns human hepatocellular carcinoma cell line (HepG2). Briefly: MTT cytotoxicity on HepG2. As to conditions: HepG2, 24 h, read-out: IC50 ± SEM HepG2.
Protocol: (§4) Briefly, HepG2 and SH-SY5Y cells were seeded into 96-well plates in 100 µL and density of 15 × 10^3 and 20 × 10^3 cells per well, respectively. Cells were allowed to attach overnight. The stock solutions of tested compounds were prepared in DMSO (Sigma-Aldrich), further serially diluted in cultivation medium and added to the cells in 96-well culture plate. […] After 24 h was the medium aspirated and 100 µL MTT solution (0.5 mg/mL) in serum free DMEM medium was added to each well. The cells were then incubated for one hour. The medium was then aspirated and purple crystals of MTT formazan were dissolved in 100 µL DMSO under shaking. The absorbance was measured with a multimode microplate reader Spark® (Tecan Trading AG, Männedorf, Switzerland) at test wavelength of 570 nm.
(§5) The data were obtained from three independent experiments performed in triplicates. The IC50 values were expressed as a mean ± standard error of the mean (SEM).
The subject of data set [4] is human neuroblastoma cell line (SH-SY5Y). Briefly: MTT cytotoxicity on SH-SY5Y. The conditions noted are these: 24 h, read-out: IC50 ± SEM SH-SY5Y.
Protocol: as §4, §5

Values joined by “and” are separate entries in the source; they are usually repeats but may differ in a detail not shown here. Identical values can stand only once.

human butyrylcholinesterase (hBChE; EC 3.1.1.8), sequence (P06276 29-602): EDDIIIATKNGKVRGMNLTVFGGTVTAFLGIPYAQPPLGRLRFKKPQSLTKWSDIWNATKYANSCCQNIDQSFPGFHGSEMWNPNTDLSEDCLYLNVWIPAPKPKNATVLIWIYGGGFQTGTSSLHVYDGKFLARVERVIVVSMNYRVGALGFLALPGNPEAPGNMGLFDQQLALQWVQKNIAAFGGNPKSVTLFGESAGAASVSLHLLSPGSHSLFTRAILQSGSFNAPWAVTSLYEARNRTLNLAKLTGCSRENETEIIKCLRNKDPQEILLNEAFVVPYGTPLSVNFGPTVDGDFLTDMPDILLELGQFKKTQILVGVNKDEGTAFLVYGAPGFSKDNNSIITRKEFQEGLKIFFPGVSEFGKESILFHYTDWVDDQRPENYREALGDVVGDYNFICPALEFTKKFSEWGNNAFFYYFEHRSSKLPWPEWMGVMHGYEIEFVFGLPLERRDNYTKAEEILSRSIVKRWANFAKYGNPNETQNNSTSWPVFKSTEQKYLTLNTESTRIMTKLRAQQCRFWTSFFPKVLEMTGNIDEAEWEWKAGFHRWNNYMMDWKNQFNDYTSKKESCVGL
human AChE (hAChE; EC 3.1.1.7), sequence (P22303 32-614): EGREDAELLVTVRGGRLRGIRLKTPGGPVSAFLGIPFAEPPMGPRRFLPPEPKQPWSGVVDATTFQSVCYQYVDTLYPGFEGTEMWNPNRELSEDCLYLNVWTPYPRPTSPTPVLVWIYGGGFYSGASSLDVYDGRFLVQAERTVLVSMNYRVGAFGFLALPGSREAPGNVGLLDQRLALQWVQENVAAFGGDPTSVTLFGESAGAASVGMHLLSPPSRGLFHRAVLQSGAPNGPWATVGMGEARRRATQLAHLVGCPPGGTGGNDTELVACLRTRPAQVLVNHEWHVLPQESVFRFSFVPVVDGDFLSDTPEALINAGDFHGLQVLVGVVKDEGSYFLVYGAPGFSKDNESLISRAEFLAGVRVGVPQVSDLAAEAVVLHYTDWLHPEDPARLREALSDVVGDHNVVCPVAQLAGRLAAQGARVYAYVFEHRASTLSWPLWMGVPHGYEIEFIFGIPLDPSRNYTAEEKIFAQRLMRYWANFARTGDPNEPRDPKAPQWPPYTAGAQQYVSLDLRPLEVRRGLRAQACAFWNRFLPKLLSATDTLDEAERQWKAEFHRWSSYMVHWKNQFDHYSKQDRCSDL
Protocol for in vitro: The PAMPA was used as the non-cell-based in vitro assay to predict BBB penetration carried out in a coated 96-well membrane filter[44]^,[52]. […] Tested compounds were dissolved first in DMSO and then diluted with PBS (pH 7.4) to achieve the final concentration of 100 µM in the donor well. […] An aliquot of 300 µL of the donor solution (VD) was added to the donor wells and the donor filter plate was carefully put on the acceptor plate so that coated membrane was "in touch" with both donor solution and acceptor buffer. […] The concentration of the tested compound in both the donor and acceptor wells was assessed after 3, 4, 5, and 6 h of incubation, respectively, in quadruplicate using a multi-plate reader Spark (Tecan GmbH, Grödig, Austria) at the maximum absorption wavelength of each compound. Also prepared were solutions at the theoretical equilibrium of the given compound (i.e. the theoretical concentration if the donor and acceptor compartment were simply combined).

Regarding `C#CCNCCCNc1c2c(nc3ccccc13)CCCC2.Cl.Cl` [Compound 21, N-(Prop-2-yn-1-yl)-N'-(1,2,3,4-tetrahydroacridin-9-yl)propane-1,3-diamine dihydrochloride], in data set [1], the IC50 stood at 95 ± 1 nM and the “SI (hBChE/hAChE)” value is given as 0.98. Moreover, in data set [2], the IC50 stood at 93 ± 3 nM. At hMAO-A, the “% of MAO-A activity (1 µM)” value came to 47% and the “% of MAO-A activity (10 µM)” value came to 54%. At hMAO-B, the “% of MAO-B activity (1 µM)” value came out at 88% and the “% of MAO-B activity (10 µM)” value amounted to 90%. In addition, the Papp at 100 µM in the data set “in vitro” amounted to 6.07 ± 0.53 ×10⁻⁶ cm/s. In addition, the IC50 in data set [3] was 25900 ± 730 nM. The IC50 in data set [4] was determined as 38800 ± 750 nM.
For the molecule `C#CCNc1c2c(nc3ccc(Oc4ccccc4)cc13)CCCC2.Cl` [Compound 15, 7-Phenoxy-N-(prop-2-yn-1-yl)-1,2,3,4-tetrahydroacridin-9-amine hydrochloride], the IC50 in data set [1] was 1470 ± 24 nM; in data set [2], 659 ± 77 nM; against hMAO-B, 40 nM and 40.4 nM; in data set [3] it was 16900 ± 770 nM; in data set [4], 23400 ± 2550 nM. Besides, in data set [1], the “SI (hBChE/hAChE)” value was 0.45. Further, the “% of MAO-A activity (1 µM)” value at hMAO-A is reported as 41%. The “% of MAO-A activity (10 µM)” value at hMAO-A was 51%. Further, the “% of MAO-B activity (1 µM)” value at hMAO-B worked out at 8%. Moreover, at hMAO-B, the “% of MAO-B activity (10 µM)” value is on record as 3%. The Papp at 100 µM in the data set “in vitro” was found to be 10.4 ± 0.94 ×10⁻⁶ cm/s.
Regarding `C#CCN(CC#C)CCCNc1c2c(nc3ccccc13)CCCC2.Cl.Cl` [Compound 20, N,N-Di(prop-2-yn-1-yl)-N'-(1,2,3,4-tetrahydroacridin-9-yl)propane-1,3-diamine dihydrochloride], in data set [1], the IC50 came out at 198 ± 24 nM and the “SI (hBChE/hAChE)” value stood at 0.39. Besides, the IC50 in data set [2] came to 78 ± 3 nM. For the same molecule, on hMAO-A, the “% of MAO-A activity (1 µM)” value is 78% and the “% of MAO-A activity (10 µM)” value was found to be 33%. On hMAO-B, the “% of MAO-B activity (1 µM)” value is 148% and the “% of MAO-B activity (10 µM)” value was 96%. The molecule further yielded a Papp at 100 µM in “in vitro” of 12.2 ± 1.12 ×10⁻⁶ cm/s. Besides, in data set [3], the IC50 came out at 38300 ± 1750 nM. The IC50 in data set [4] was found to be 31400 ± 1550 nM.
For the molecule `C=CCNc1c2c(nc3ccc(Oc4ccccc4)cc13)CCCC2.Cl` [Compound 7, 7-Phenoxy-N-(prop-2-en-1-yl)-1,2,3,4-tetrahydroacridin-9-amine hydrochloride], in data set [1], the IC50 was determined as 1120 ± 21 nM and the “SI (hBChE/hAChE)” value is recorded as 2.47. In addition, in data set [2], the IC50 is 2770 ± 133 nM. Further, at hMAO-A, the “% of MAO-A activity (1 µM)” value worked out at 99% and the “% of MAO-A activity (10 µM)” value came out at 90%. Further, at hMAO-B, inhibition was half-maximal at 163 nM (IC50), the “% of MAO-B activity (1 µM)” value was found to be 5% and the “% of MAO-B activity (10 µM)” value is listed as 2%. In “in vitro”, the Papp at 100 µM is 4.22 ± 0.17 ×10⁻⁶ cm/s. In data set [3], the IC50 was 10300 ± 830 nM. Besides, the IC50 in data set [4] is 12400 ± 440 nM.
Regarding `C=CCN(CC=C)c1c2c(nc3ccc(OC)cc13)CCCC2.Cl` [Compound 4, 7-Methoxy-N,N-di(prop-2-en-1-yl)-1,2,3,4-tetrahydroacridin-9-amine hydrochloride], in data set [1], the IC50 amounted to 3690 ± 113 nM and the “SI (hBChE/hAChE)” value worked out at 2.37. Further, the concentration for half-maximal inhibition (IC50) in data set [2] came to 8760 ± 292 nM. In addition, at hMAO-A, the “% of MAO-A activity (1 µM)” value is listed as 103% and the “% of MAO-A activity (10 µM)” value worked out at 107%. Further, on hMAO-B, the “% of MAO-B activity (1 µM)” value was determined as 83% and the “% of MAO-B activity (10 µM)” value stood at 61%.
Take `C#CCN(CC#C)CCCNc1c2c(nc3ccc(OC)cc13)CCCC2.Cl.Cl` [Compound 24, N-(7-Methoxy-1,2,3,4-tetrahydroacridin-9-yl)-N',N'-di(prop-2-yn-1-yl)-propane-1,3-diamine dihydrochloride]: in data set [1], the IC50 is 1950 ± 46 nM and the “SI (hBChE/hAChE)” value was determined as 0.53. For the same molecule, the IC50 in data set [2] came out at 1040 ± 60 nM. Further, on hMAO-A, the “% of MAO-A activity (1 µM)” value was found to be 60% and the “% of MAO-A activity (10 µM)” value is reported as 70%. Further, on hMAO-B, the “% of MAO-B activity (1 µM)” value is reported as 169% and the “% of MAO-B activity (10 µM)” value stood at 82%.

The record behind these values is article PMC9518283 (Journal of Enzyme Inhibition and Medicinal Chemistry, 2022).
